Results: patent US11040952B2, “Phthalazinone compound, method for preparation thereof, pharmaceutical composition thereof, and use thereof” (SHANGHAI INSTITUTE OF MATERIA MEDICA, CHINESE ACADEMY OF …, priority 2017, dated 2021)
Where two headings read alike, the source gives them in different places.

Assays:
HBV capsid = molecular target: T1, HBV capsid (Hepatitis B virus genotype D subtype ayw, UniProt P03146); assay: HBV capsid assembly, non-denaturing agarose gel electrophoresis; assay type: cell-based; settings: FIG. 1; for content of HBV DNA in the capsid: Southern blot with HBV-specific probes; for generation of abnormal capsid (electrophoretic migration): non-denaturing agarose gel, anti-HBcAg Western blot
T1 construct: expressed in transfected cells
T1 sequence (P03146 whole entry): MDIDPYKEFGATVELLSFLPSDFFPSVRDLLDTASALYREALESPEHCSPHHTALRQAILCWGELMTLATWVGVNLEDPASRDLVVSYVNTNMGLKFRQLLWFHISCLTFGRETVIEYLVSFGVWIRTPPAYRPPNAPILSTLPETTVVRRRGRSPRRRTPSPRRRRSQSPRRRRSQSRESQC
Experimental: 1×10^6 dispersed cells were added with […] of cell lysate (50 mM Tris-HCl pH 7.5, 1 mM EDTA, 0.5% Nonidet P-40), and lysed on ice for 15 min, with vortexing every 5 min to make sure that the cells were sufficiently lysed. The lysed cells were centrifuged at 10,000×g for 10 min at 4° C. to remove nuclei and cell debris. 20 μl of the cell lysate was added into the well of 1.2% or 1.8% agarose gel. Electrophoresis was run at 70V for 2.5 h at 4° C. […] After electrophoresis, the membrane-transferring was performed by siphon overnight. One sample was transferred to a nitrocellulose membrane (Amersham™ Hybond-ECL, GE), and the capsid was detected with anti-HBcAg antibody (Abcam) using Western blot method; another sample was in situ denatured with a denaturing solution (1.5 M NaCl, 0.5 M NaOH) for 45 min, neutralized with a neutralizing solution (1.5 M NaCl, 1 M Tris-HCl pH 7.4) for 45 min, and transferred to a nylon membrane (Amersham™ Hybond-N+, GE), and then the level of nucleic acid in the capsid was detected with HBV-specific probes by using Southern blot method.

HBV = HBV DNA content in the supernatant of cell culture (real-time PCR); assay type: cell-based, hepatitis B virus (HBV); settings: Hepatitis B virus, HepG2.2.15, 192 h, inhibition of HBV DNA replication, HepG2.2.15 supernatant, 8 days
Summary of the method: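 HepG2.2.15 cells stably carrying full-length HBV exposed to compounds for 8 days in DMEM with 10% FBS, medium renewed on day 4. Supernatant virion HBV DNA extracted and quantified by real-time PCR against a 1e^7-1e^4 IU/ml standard curve; IC50 calculated.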

[1] = Tissue distribution in mice; assay type: in vivo; settings: po 10 mg/kg; for concentration at 1 h / concentration at 3 h / concentration at 8 h: mouse
Experimental: 10 μl of a plasma and tissue sample was placed in a 1.5 ml centrifuge tube, added with 100 μl of an internal standard solution (5.00 ng/ml verapamil and 50.0 ng/ml Glibenclamide solution in acetonitrile), vortexed for 60 seconds, and then centrifuged for 3 min (at 12000 rpm); 75 μl of the supernatant was transferred to a 96-well plate loaded with an equal volume of water, and shaken for mixing well and then analyzed. The injection volume was 10 μl. Internal standard: an appropriate amount of verapamil and glibenclamide standards were dissolved and diluted in dimethyl sulfoxide (DMSO), shaken for mixing well, and prepared into a stock solution with a mass concentration of 2000 μg/ml, which was further diluted into internal standard working solutions of 5.00 ng/ml and 50.0 ng/ml. Stock solution: an appropriate amount of the compound was weighted and formulated into a 2.00 mg/ml stock solution with DMSO. Working solution: The stock solution was stepwisely diluted to obtain the solutions at each gradient concentration. 5.00 μl of reference standard working solution was added to 45.0 μl of a mice blank plasma and blank tissue. Then it was treated according to the method described in the section of “Sample pretreatment method”. Administration solution: a certain amount of a compound was precisely weighed and formulated into a 2.00 mg/ml milky white suspension in a ratio of 2.5% DMSO+97.5% (0.5% MC). Approximately 0.1 ml of orbital blood and liver was collected in EDTAK2 for anticoagulation from each animal that had been anesthetized with isoflurane. For the PO group, the blood was collected at 1 h, 3 h, and 8 h after administration of the test compound. After collection, the blood sample was analyzed by using comparative compounds I-70 and I-88.

[2] = MTT assay for cytotoxicity; assay type: cell-based, Human; settings: human, HepG2.2.15 cells, half (50%) lethal concentration
Summary of the method: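 HBV-transfected HepG2.2.15 cells were cultured with compound for 8 days at 37 °C in DMEM/10% FBS, with medium changed on day 4. Viability was read by MTT (4 h, then 12 h lysis, OD570) against control wells. CC50 is the concentration cutting viability by 50%.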

[3] = liver, 1 h, read-out: Mean drug concentration, Liver
[4] = liver, 3 h, read-out: Mean drug concentration, Liver
[5] = liver, 8 h, read-out: Mean drug concentration, Liver
[6] = plasma, 1 h, read-out: Mean drug concentration, Plasma
[7] = plasma, 3 h, read-out: Mean drug concentration, Plasma
[8] = plasma, 8 h, read-out: Mean drug concentration, Plasma

Compound | content of HBV DNA in the capsid (HBV capsid) | generation of abnormal capsid (electrophoretic migration) (HBV capsid) | IC50 (HBV) | CC50 at 8 days [2] | further results
Nc1ccc(-c2nn(Cc3ccc(Cl)cc3)c(=O)c3ccccc23)c(F)n1 [Compound I-11] | significantly reduced | induce the generation of an abnormal capsid with faster electrophoretic migration speed | 900 nM | 22600 nM | concentration at 1 h [1, 3]: 1220 ng/g; concentration at 3 h [1, 4]: 1410 ng/g; concentration at 8 h [1, 5]: 815 ng/g; concentration at 1 h [1, 6]: 33.3 ng/mL; concentration at 3 h [1, 7]: 32.5 ng/mL; concentration at 8 h [1, 8]: 23 ng/mL; liver targeting [1]: good liver targeting in mice
O=c1c2ccccc2c(-c2ccc(F)nc2F)nn1Cc1ccc(Cl)cc1 [Compound I-9] | significantly reduced | induce the generation of an abnormal capsid with faster electrophoretic migration speed | 300 nM | 40700 nM | –
Cc1cc(-c2ccc(F)nc2F)nn(Cc2ccc(Cl)cc2)c1=O [I-70, reference compound] | – | – | – | – | concentration at 1 h [1, 6]: 161 ng/mL; concentration at 3 h [1, 7]: 71.7 ng/mL; concentration at 8 h [1, 8]: 17.3 ng/mL; Mean drug concentration, Liver ([1]; 1 h): BLQ^a; Mean drug concentration, Liver ([1]; 3 h): BLQ; Mean drug concentration, Liver ([1]; 8 h): BLQ
CNc1ccc(-c2nn(Cc3ccc(Cl)cc3)c(=O)c3ccccc23)c(F)n1 [Compound I-12] | significantly reduced | induce the generation of an abnormal capsid with faster electrophoretic migration speed | 600 nM | 15700 nM | –
Cc1ccc(-c2nn(Cc3ccc(Cl)cc3)c(=O)c3ccccc23)c(F)n1 [Compound I-10] | significantly reduced | induce the generation of an abnormal capsid with faster electrophoretic migration speed | 100 nM | 81800 nM | concentration at 1 h [1, 3]: 476 ng/g; concentration at 3 h [1, 4]: 318 ng/g; concentration at 8 h [1, 5]: 2.91 ng/g; concentration at 1 h [1, 6]: 61 ng/mL; concentration at 3 h [1, 7]: 12.5 ng/mL; liver targeting [1]: good liver targeting in mice; Mean drug concentration, Plasma ([1]; 8 h): BLQ
N#Cc1ccc(Cn2nc(-c3ccc(C(F)(F)F)nc3F)c3ccccc3c2=O)cc1 [IV-15] | – | – | 270 nM | > 100000 nM | concentration at 1 h [1, 3]: 7270 ng/g; concentration at 3 h [1, 4]: 4460 ng/g; concentration at 8 h [1, 5]: 2800 ng/g; concentration at 1 h [1, 6]: 549 ng/mL; concentration at 3 h [1, 7]: 437 ng/mL; concentration at 8 h [1, 8]: 257 ng/mL; liver targeting [1]: good liver targeting in mice
[2H]C(c1ccc(Cl)cc1)n1nc(-c2ccc(C)nc2F)c2ccccc2c1=O (stereo not shown) [Compound I-24] | significantly reduced | induce the generation of an abnormal capsid with faster electrophoretic migration speed | 400 nM | > 100000 nM | –
N#Cc1ccc(Cn2nc(-c3ccc(F)nc3F)c3ccccc3c2=O)cc1 [IV-5] | – | – | 120 nM | > 100000 nM | concentration at 1 h [1, 3]: 1030 ng/g; concentration at 3 h [1, 4]: 1050 ng/g; concentration at 8 h [1, 5]: 1190 ng/g; concentration at 1 h [1, 6]: 154 ng/mL; concentration at 3 h [1, 7]: 63.2 ng/mL; concentration at 8 h [1, 8]: 80.1 ng/mL; liver targeting [1]: good liver targeting in mice
[2H]C(c1ccc(Cl)cc1)n1nc(-c2ccc(F)nc2F)c2ccccc2c1=O (stereo not shown) [Compound I-26] | significantly reduced | induce the generation of an abnormal capsid with faster electrophoretic migration speed | 900 nM | > 100000 nM | –
Cc1ccc(-c2cc(C)c(=O)n(Cc3ccc(Cl)cc3)n2)c(F)n1 [I-88, reference compound] | – | – | – | – | concentration at 1 h [1, 3]: 34.2 ng/g; concentration at 3 h [1, 4]: 9.64 ng/g; concentration at 1 h [1, 6]: 169 ng/mL; concentration at 3 h [1, 7]: 180 ng/mL; concentration at 8 h [1, 8]: 0.993 ng/mL; Mean drug concentration, Liver ([1]; 8 h): BLQ
N#Cc1ccc(Cn2nc(-c3ccc(C4CC4)nc3F)c3ccccc3c2=O)cc1 [IV-19] | – | – | 270 nM | > 100000 nM | –
Nc1ncc(-c2nn(Cc3ccc(Cl)cc3)c(=O)c3ccccc23)cn1 [II-1] | – | – | 3800 nM | 41500 nM | –
N#Cc1ccc(Cn2nc(-c3ccc(NCCCCO)nc3F)c3ccccc3c2=O)cc1 [IV-68] | – | – | 332 nM | > 100000 nM | –
CCNCCCNc1nc(F)c(-c2nn(Cc3ccc(C#N)cc3)c(=O)c3ccccc23)cc1Cl [IV-54] | – | – | 470 nM | 8550 nM | –
N#Cc1ccc(Cn2nc(-c3cc(Cl)cnc3F)c3ccccc3c2=O)c(Cl)c1 [Compound I-41] | – | – | 108 nM | 46600 nM | –
COc1cc2c(-c3ccc(C)nc3F)nn(Cc3ccc(Cl)cc3)c(=O)c2cc1OC [Compound V-6] | – | – | 2600 nM | > 100000 nM | –
N#Cc1ccc(Cn2nc(-c3cc(CN4CCOCC4)cnc3F)c3ccccc3c2=O)cc1 [Compound I-45] | – | – | 2020 nM | > 100000 nM | –
N#Cc1ccc(Cn2nc(-c3ccc(N4CCC4)nc3F)c3ccccc3c2=O)cc1 [IV-11] | – | – | 400 nM | 98500 nM | –
COCCOCCOCCNc1ccc(-c2nn(Cc3ccc(C#N)cc3)c(=O)c3ccccc23)c(F)n1 [IV-49] | – | – | 166 nM | 93600 nM | –
O=c1c2ccccc2c(-c2cccnc2F)nn1Cc1ccc(Cl)cc1 [Compound I-3] | significantly reduced | induce the generation of an abnormal capsid with faster electrophoretic migration speed | 500 nM | > 100000 nM | –
N#Cc1ncccc1-c1nn(Cc2ccc(Cl)cc2)c(=O)c2ccccc12 [Compound I-8] | – | – | 5200 nM | > 100000 nM | –
CCOCCOCCNc1nc(F)c(-c2nn(Cc3ccc(C#N)cc3)c(=O)c3ccccc23)cc1Cl [IV-57] | – | – | 87.8 nM | ≥ 100000 nM | –
